Source: patent US20250040546A1, “DETERGENT FOR VIRAL INACTIVATION” (Bristol-Myers Squibb Company, priority 2021, published 2025)
Like-named read-outs stand apart in the source and are kept apart here.

Key:
HSV-1 = assay: Detergent-mediated virus inactivation of HSV-1 in Fus1 harvest (pfu-based LRV); format: cell-based, Herpes Simplex Virus type 1; conditions: detergent concentration not stated
A-MuLV = assay: Detergent-mediated virus inactivation of A-MuLV in Fus1 harvest (pfu-based LRV); format: cell-based, Amphotropic Murine Leukemia Virus; conditions: detergent concentration not stated
Procedure: (§1) Three lipid-enveloped viruses X-MuLV, HSV-1 and A-MuLV (Amphotropic Murine Leukemia Virus) were investigated for VI in the cell culture fluid of a monoclonal antibody (mAb1) and a fusion protein (Fus1) for a range of detergents and detergent concentrations (FIG. 6). Protein concentration and buffer matrix were dictated by that in the harvest for the specific therapeutic and process. A temperature of 2-8° C. was used as a worst case for inactivation and incubation times of 0, 5 and 60 minutes were used to explore the kinetics of inactivation. Viral clearance was measured in units of Log Reduction Value (LRV) which was calculated from pfu (Plaque Forming Units) as follows
(§2) Virus inactivation studies were conducted for X-MuLV in mAb1 harvest, HSV-1 and A-MuLV in Fus1 harvest at 0, 5 and 60 minutes at 2-8° C. The inactivation studies for each condition were conducted in duplicates with results varying within 0.5 LRV. The lower of the two LRVS was plotted in FIG. 6 to remain conservative regarding the extent of inactivation. The error bars represent the assay variability.
The mechanism of detergent-mediated VI can share similarities with pH-mediated VI and is likely a characteristic of the detergent-protein-virus system under consideration. […]

X-MuLV = assay: Detergent-mediated virus inactivation of X-MuLV in mAb1 harvest (pfu-based LRV); format: cell-based, Xenotropic Murine Leukemia Virus; conditions: for Log reduction value (LRV) of X-MuLV: 60 minutes hold at 2-8° C.
Procedure: as §1, §2
The mechanism of detergent-mediated VI can share similarities with pH-mediated VI and is likely a characteristic of the detergent-protein-virus system under consideration. Detergents could unfold or denature specific viral surface glycoproteins that are critical for the host cell infection as is the case for X-MuLV [Brorson et al. (2003) Biotechnology and Bioengineering 82(3):321-329; Simons & Ehehalt (2002) Journal of Clinical Investigation 110(5):597-603]. Alternately, detergents could inactivate viruses such as HSV-1 through dissolution of the viral lipid envelope or preferential partitioning of the membrane protein into detergent micelles [Welling-Wester et al. (1998) Journal of chromatography A 816(1):29-37]. Three lipid-enveloped viruses commonly used for viral validation studies, X-MuLV, HSV-1 and A-MuLV (Amphotropic Murine Leukemia Virus), were investigated for VI. Any VI condition showing LRV ≥4.0 after a 60 minute hold at 2-8° C., worst case temperature for VI, was considered effective. The extent of inactivation from different detergents was compared with Triton X-100.

[1] = Slinde & Flatmark (1976); cited from earlier work
Fus1 = molecular target: T1, Fus1 (Homo sapiens, UniProt P16410); assay: Oxidation of Fus1 (tryptic digest RP-UPLC) after detergent spiking of harvest; format: physicochemical; conditions: Fus1 harvest spiked with detergent at 1×CMC, protein A eluate
T1 construct: made in house; host or cells: CHO
Procedure: (§3) The protein sample was denatured in denaturation buffer (8 M guanidine, 50 mM TRIS, pH 8.0) and the cystine disulfide bridges were reduced with dithiothreitol (200 mM DTT) followed by S-alkylation with iodoacetamide (400 mM IAM). The denatured, reduced protein was buffer-exchanged (50 mM TRIS, 10 mM CaCl2), pH 7.6) prior to digestion with trypsin. The resulting digested mixture was then analyzed by reverse-phase ultra-performance liquid chromatography (RP-UPLC) using UPLC BEH C18 Column, […], 130 angstrom, 2.1×100 mm (Waters, Catalog no. 186002352) with Mobile Phase A (0.1% TFA, 50 mM Methionine in HPLC Grade Water) and Mobile Phase B (0.1% TFA, 50 mM Methionine in 80% ACN and 20% HPLC grade water). Protein detection at 215 nm absorbance and fluorescent excitation/emission of 275 nm/303 nm and 280 nm/348 nm was used to quantify relative levels of oxidation and deamidation respectively.

Fus2 = molecular target: T2, Fus2 (Homo sapiens, UniProt P16410, A66Y/L141E); assay: Oxidation of Fus2 (tryptic digest RP-UPLC) after detergent spiking of harvest; format: physicochemical; conditions: Fus2 harvest spiked with detergent at 1×CMC, protein A eluate
T2 construct: made in house; host or cells: CHO
Procedure: as §3

[2] = system: fusion proteins Fus1 and Fus2; assay: SEC analysis of HMW formation and aggregation kinetics of fusion proteins with detergents; format: physicochemical
Procedure: Size exclusion chromatography (SEC) was performed in a Waters HPLC Alliance 2695 System using TSKgel G3000SWXL Column (Tosoh Bioscience, Catalogue no. 085430) with guard column (Tosoh Bioscience, Catalogue no. 08541) in line. A mobile phase of 0.2 M Sodium phosphate, monobasic, 0.9% NaCl, pH 7.0 was used with 20 μL injection volumes at 1 to 10 mg/mL target protein concentrations with a flow rate of 1 mL/minute. Tandem SEC was performed with 50 μL injection volumes with a flow rate of 0.5 mL/minute using 6 TSKgel G3000SWXL Column using 0.2 M KH2PO4, 0.9% NaCl, pH 6.8 as mobile phase.
Given N is the monomer species, No is the initial monomer % at time t=0, aggregation follows first order kinetics with k1 being the rate constant of aggregation as shown in Equation (1) (Derivation in Supplemental Information).

B7.1 Ig = assay: Potency: Surface Plasmon Resonance binding of CTLA-4 domain of Fus1 to B7.1 Ig in presence of detergent; conditions: high concentration Fus1 DS; detergent at 10×CMC; 24 hours, room temperature
Procedure: The potency was determined by measuring the binding efficacy of the CTLA-4 (cytotoxic T-lymphocyte-associated protein 4) domain of the fusion proteins against the complementary binding domain of membrane protein B7.1 Ig, typically found on activated antigen-presenting cells (APC). Drug efficacy for the purified DS was evaluated using a Surface Plasmon Resonance assay; the binding efficacy of the CTLA-4 domain of Fus1 and Fus2 against a high concentration of the peripheral membrane protein B7.1 Ig was examined. Due to the influence of impurities on the binding efficacy, only DS was tested.

lipid-enveloped viruses = assay: Viral inactivation, summary statements (LRV equal or above 4 criterion); format: cell-based; conditions: detergent below its CMC, e.g. 0.5×CMC; virus not named
Source text: The present disclosure relates to detergent-mediated inactivation of lipid-enveloped viruses. […] The current commercially available detergent for such process is Triton X-100.
Several environmentally friendly detergents for the viral inactivation step of biologics manufacturing processes have been identified in the art, e.g., Lauryldimethylamine Oxide (LDAO) and ECOSURF™ EH9. These systems for viral inactivation use a single detergent. The present disclosure provides a detergent mixture comprising two environmentally sustainable detergents: n-Octyl-β-D-Glucopyranoside (OG) and n-Dodecyl-β-D-Maltopyranoside (DDM). […] Accordingly, the disclosed combination of OG and DDM can be used as substitute of Triton X-100 for the viral inactivation step in the production of biologics, for example, in the process used to manufacture ORENCIA®.

[3] = cited from earlier work
Isoelectric point (pI) = format: physicochemical
[4] = Sialic acid content of Fus1 and Fus2 Protein A eluates of detergent-spiked harvest; format: physicochemical; conditions: stated as within acceptable range
Procedure: Sialic acids are neuraminic acids modified by the addition of an acetyl group (N-acetylneuraminic acid/NANA) or a glycol group (N-glycolylneuraminic acid/NGNA) .Sialic acid contents are reported as normalized molar ratios, which are the total moles of NANA and NGNA per mole of recombinant protein. The protein concentrations were determined by UV absorbance at 280 nm. Sialic acid content was determined by partial acidic hydrolysis using sulfuric acid at 0.1 N final concentration at 80° C. for 1 hour followed by reversed phase HPLC using Rezex Monosaccharide RHM HPLC column (Phenomenex, Catalog No. OOH-0132-KO with respective guard column (Phenomenex, Catalog No. 03B-0132-KO). Elution was conducted with 5 mM Sulfuric acid at 0.6 mL/min and 40° C.

T1 sequence (P16410 with tags, fused parts or gaps): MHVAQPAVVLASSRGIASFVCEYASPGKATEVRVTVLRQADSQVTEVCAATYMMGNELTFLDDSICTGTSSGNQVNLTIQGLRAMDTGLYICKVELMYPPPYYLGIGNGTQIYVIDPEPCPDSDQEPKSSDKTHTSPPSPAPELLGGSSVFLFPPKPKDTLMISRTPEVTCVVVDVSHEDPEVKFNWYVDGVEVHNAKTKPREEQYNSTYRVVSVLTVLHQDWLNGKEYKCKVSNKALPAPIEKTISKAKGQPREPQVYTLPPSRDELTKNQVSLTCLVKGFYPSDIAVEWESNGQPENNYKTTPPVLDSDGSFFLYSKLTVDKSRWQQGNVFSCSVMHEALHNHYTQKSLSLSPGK
T2 sequence (P16410 with tags, fused parts or gaps A66Y/L141E limits assumed): as the sequence (P16410 with tags, fused parts or gaps) above, with A29Y, L104E counted along it

## Polysorbate 80 [PS80]
HSV-1
  Inactivation of HSV-1: No inactivation
A-MuLV
  Inactivation of A-MuLV: No inactivation
X-MuLV; detergent concentration not stated
  Inactivation of X-MuLV: No inactivation

## Triton X-100
X-MuLV; detergent at 1×CMC
  Log reduction value (LRV) of X-MuLV: ≥ 4.85±0.5 LRV
X-MuLV; detergent at 10×CMC
  Log reduction value (LRV) of X-MuLV: ≥ 4.85±0.5 LRV
[1]
  HLB value: 13.5

## CCCCCCCCO[C@@H]1O[C@H](CO)[C@@H](O)[C@H](O)[C@H]1O [OG, n-Octyl-β-D-Glucopyranoside]
Fus1
  Oxidation of Fus1: higher oxidation
Fus2
  Oxidation of Fus2: higher oxidation
[2]; SEC, DS and clarified harvest of Fus1 and Fus2
  HMW formation (rank among detergents): greatest
[2]; high concentration DS of Fus1 and Fus2
  Rate of aggregation (rank among OG, DDM, LDAO): fastest rate of aggregation
B7.1 Ig
  Potency (B7 binding efficiency relative to reference material): less than 60%
lipid-enveloped viruses
  Viral inactivation (defined as a LRV equal or above 4): insufficient for viral inactivation

## CCCCCCCCCCCC[N+](C)(C)[O-] [LDAO, Lauryldimethylamine Oxide]
[3]; fusion protein at 2-8° C. (Conley et al.)
  LRV: ~3.0 LRV
[3]; fusion protein at room temperature (Conley et al.)
  LRV: ~4.0 LRV
[3]; mAb under the same conditions, 2-8° C. (Conley et al.)
  LRV: 4.0 LRV

## CCCCCCCCCCO[C@@H]1O[C@H](CO)[C@@H](O[C@H]2O[C@H](CO)[C@@H](O)[C@H](O)[C@H]2O)[C@H](O)[C@H]1O [DM, n-Decyl-β-D-Maltopyranoside]
X-MuLV; detergent at 10×CMC
  Log reduction value (LRV) of X-MuLV: 2.0 LRV

## Fus1: fusion protein abatacept (CTLA4-Ig, SEQ ID NO:1 proteins)
Isoelectric point (pI)
  pI: ~5.0
[4]
  NANA (N-acetylneuraminic acid): protein molar concentration: 8 to 12%

## Fus2: fusion protein belatacept (SEQ ID NO:2 proteins)
Isoelectric point (pI)
  pI: ~5.0
[4]
  NANA (N-acetylneuraminic acid): protein molar concentration: 6 to 8.5%
